In brackets after ≈: the same amount, converted by molar mass.
How the values were obtained:
Caco-2 cell monolayers = test: Caco-2 Permeability Assay (bidirectional); assay type: in vitro ADME
Excerpt: (§1) Caco-2 cells are commonly used in a confluent monolayer on a cell culture insert filter. When cultured in this format and under specific conditions, the cells become differentiated and polarized such that their phenotype, morphologically and functionally resembles the enterocytes lining the small intestine. The cell monolayer provides a physical and biochemical barrier to the passage of small molecules, and is widely used across the pharmaceutical industry as an in vitro model of the human small intestinal mucosa to predict the absorption of orally administered drugs (Hidalgo et al., Gastroenterology, 1989; Artursson, J. Pharm. Sci., 1990). The correlation between the in vitro apparent permeability (P ? app) across Caco-2 monolayers and the in vivo absorption is well established (Artursson et al., Biochem. Biophys. Res. Comm., 1991).
(§2) The present assay was used to determine the bidirectional permeability of the compounds of the invention through Caco-2 cell monolayers. Caco-2 cells were grown in confluent monolayers where the media of both the apical (A) and basolateral (B) sides were at pH 7.4. Compounds were dosed at 1 μM in the presence of 200 μM Lucifer Yellow, on the apical side (A→B) or the basolateral side (B→A) for assessment, in duplicate.
(§3) The absorption potential of compounds were classified as either Low (P-app <1×10^−6 cm/s) or High (P-app >1×10^−6 cm/s).

[1] = Caco-2 Permeability Assay (bidirectional); assay type: in vitro ADME; settings: human; for recovery at 120 min, 1 μM / Papp A→B at 120 min, 1 μM / Papp B→A at 120 min, 1 μM: pH 7.4; for efflux ratio at 120 min, 1 µM / Papp A→B at 120 min, 1 μM / Papp B→A at 120 min, 1 μM / permeability class (Low/High absorption potential) at 120 min, 1 µM: Caco-2; for efflux ratio at 120 min, 1 µM: (Papp B→A)/(Papp A→B); for Papp A→B at 120 min, 1 μM: Direction A→B; for Papp A→B at 120 min, 1 μM / Papp B→A at 120 min, 1 μM: unit not given (thresholds in 10^−6 cm/s); for Papp B→A at 120 min, 1 μM: Direction B→A; for permeability class (Low/High absorption potential) at 120 min, 1 µM: read-out: Permeability Classification
Excerpt: as §1, §2, §3

[2] = Solubility (18 hr vortex mixing at room temperature, filtration, HPLC); assay type: physicochemical; settings: thermodynamic from solid
Procedure: Ca. 1 mg portions of test article were combined with 120 μL solvent in wells of a 96×2 mL polypropylene plate. […] The contents of all wells were then filtered through a 0.45 μm GHP filter plate to yield clear filtrates. 5 μL of each filtrate was diluted into 100 μL DMF and vortex mixed to yield HPLC samples. Duplicate quantitation standards for each test article were prepared by diluting weighed portions of solid test article in measured volumes of DMF. 2 μL of each HPLC sample and quantitation standard were analyzed by HPLC using the method outlined in Table 5. Dissolved test article concentrations were calculated by peak area ratio against the appropriate quantitation standards.

[3] = 50 mM citrate buffer pH 2.3, 20 °C, aqueous buffer, 50 mM Cit pH 2.3, room temperature
[4] = 50 mM citrate buffer pH 3.3, 20 °C, aqueous buffer, 50 mM Cit pH 3.3, room temperature
[5] = 50 mM citrate buffer pH 4.4, 20 °C, aqueous buffer, 50 mM Cit pH 4.4, room temperature
[6] = 50 mM citrate buffer pH 5.4, 20 °C, aqueous buffer, 50 mM Cit pH 5.4, room temperature
[7] = 20 °C, aqueous buffer, PBS, room temperature
[8] = 20 °C, aqueous with cosolvent or surfactant or cyclodextrin, 10% CrEL/50 mM cit, room temperature
[9] = 20 °C, aqueous with cosolvent or surfactant or cyclodextrin, 10% PS80/50 mM cit, room temperature
[10] = 20 °C, aqueous with cosolvent or surfactant or cyclodextrin, 20% HPBCD/50 mM cit, room temperature
[11] = 20 °C, aqueous with cosolvent or surfactant or cyclodextrin, 20% SBECD/50 mM cit, room temperature
[12] = 20 °C, oil or lipid, Capryol 90, room temperature
[13] = 20 °C, oil or lipid, Capryol PGMC, room temperature
[14] = 20 °C, oil or lipid, Labrasol, room temperature
[15] = 20 °C, oil or lipid, canola oil, room temperature
[16] = 20 °C, organic solvent or mixture, EtOH, room temperature
[17] = 20 °C, organic solvent or mixture, PEG400, room temperature
[18] = 20 °C, organic solvent or mixture, PG, room temperature
[19] = 20 °C, pH 1, simulated gastric fluid, 0.1M HCl, room temperature
[20] = 20 °C, pH 13, aqueous buffer, 0.1M NaOH, room temperature
[21] = 20 °C, saline or isotonic, 0.9% NaCl, room temperature
[22] = water, room temperature (ca. 20 C)

| Structure (SMILES) | Significant Efflux (Caco-2 cell monolayers) | recovery at 120 min, 1 μM ([1]; Caco-2, pH 7.4, Direction A→B) | recovery at 120 min, 1 μM ([1]; Caco-2, pH 7.4, Direction B→A) | efflux ratio at 120 min, 1 µM [1] | Papp A→B at 120 min, 1 μM [1] | Papp B→A at 120 min, 1 μM [1] | permeability class (Low/High absorption potential) at 120 min, 1 µM [1] | further results |
| --- | --- | --- | --- | --- | --- | --- | --- | --- |
| O=C(Cc1ccccc1)Nc1ccc(CCCCc2nnc(NC(=O)Cc3ccccc3)s2)nn1 [Compound 295] | Yes (efflux ratios being significant when greater than or equal to 3 when the Papp (B→A) was greater than or equal to 1×10^−6 cm/s) | 89% | 96% | 7.3 | 8.17 ×10⁻⁶ cm/s | 59.8 ×10⁻⁶ cm/s | > 1 ×10⁻⁶ cm/s | solubility at 18 h [2, 3]: < 2 µg/mL; solubility at 18 h [2, 4]: < 2 µg/mL; solubility at 18 h [2, 5]: < 2 µg/mL; solubility at 18 h [2, 6]: < 2 µg/mL; solubility at 18 h [2, 7]: < 2 µg/mL; solubility at 18 h [2, 8]: 55 µg/mL (≈ 113 µM); solubility at 18 h [2, 9]: 27 µg/mL (≈ 55.5 µM); solubility at 18 h [2, 10]: 167 µg/mL (≈ 343 µM); solubility at 18 h [2, 11]: 90 µg/mL (≈ 185 µM); solubility at 18 h [2, 12]: 215 µg/mL (≈ 442 µM); solubility at 18 h [2, 13]: 1540 µg/mL (≈ 3160 µM); solubility at 18 h [2, 14]: 918 µg/mL (≈ 1890 µM); solubility at 18 h [2, 15]: < 2 µg/mL; solubility at 18 h [2, 16]: 83 µg/mL (≈ 171 µM); solubility at 18 h [2, 17]: 1640 µg/mL (≈ 3380 µM); solubility at 18 h [2, 18]: 234 µg/mL (≈ 481 µM); solubility at 18 h [2, 19]: 3 µg/mL (≈ 6.17 µM); solubility at 18 h [2, 20]: 268 µg/mL (≈ 551 µM); solubility at 18 h [2, 21]: < 2 µg/mL; solubility at 18 h [2, 22]: < 2 µg/mL |
| O=C(Cc1ccccc1)Nc1ccc(CCCCc2nnc(NC(=O)C(O)c3cccc(Cl)c3)s2)nn1 (stereo not shown) [Compound 318] | Yes (efflux ratios being significant when greater than or equal to 3 when the Papp (B→A) was greater than or equal to 1×10^−6 cm/s) | 73% | 82% | 18 | 2.45 ×10⁻⁶ cm/s | 44.5 ×10⁻⁶ cm/s | > 1 ×10⁻⁶ cm/s |  |
| CC(C)(C)OC(=O)NCc1cccc(CC(=O)Nc2nnc(CCCCc3ccc(NC(=O)Cc4ccccc4)nn3)s2)c1 [Compound 339] | Yes (efflux ratios being significant when greater than or equal to 3 when the Papp (B→A) was greater than or equal to 1×10^−6 cm/s) | 73% | 80% |  | 2.39 ×10⁻⁶ cm/s | 41.6 ×10⁻⁶ cm/s | > 1 ×10⁻⁶ cm/s |  |
| O=C(Cc1ccccc1)Nc1ccc(CCCCc2nnc(NC(=O)Cc3ccccn3)s2)nn1 [Compound 354] | Yes (efflux ratios being significant when greater than or equal to 3 when the Papp (B→A) was greater than or equal to 1×10^−6 cm/s) | 117% | 101% |  | 1.38 ×10⁻⁶ cm/s | 45 ×10⁻⁶ cm/s | > 1 ×10⁻⁶ cm/s |  |
| CC(C(=O)Nc1ccc(CCCCc2nnc(NC(=O)Cc3cccc(CNC(=O)OC(C)(C)C)c3)s2)nn1)c1ccccc1 (stereo not shown) [Compound 436] | Yes (efflux ratios being significant when greater than or equal to 3 when the Papp (B→A) was greater than or equal to 1×10^−6 cm/s) | 44% | 57% | 6.6 | 3.75 ×10⁻⁶ cm/s | 24.7 ×10⁻⁶ cm/s | > 1 ×10⁻⁶ cm/s |  |
| O=C(Cc1cccc(OC(F)(F)F)c1)Nc1ccc(CCCCc2nnc(NC(=O)C(O)c3cccc(Cl)c3)s2)nn1 (stereo not shown) [Compound 447] | Yes (efflux ratios being significant when greater than or equal to 3 when the Papp (B→A) was greater than or equal to 1×10^−6 cm/s) | 71% | 56% | 3.5 | 7.76 ×10⁻⁶ cm/s | 27.2 ×10⁻⁶ cm/s | > 1 ×10⁻⁶ cm/s | solubility at 18 h [2, 3]: < 4 µg/mL; solubility at 18 h [2, 4]: < 4 µg/mL; solubility at 18 h [2, 5]: < 4 µg/mL; solubility at 18 h [2, 6]: < 4 µg/mL; solubility at 18 h [2, 7]: < 4 µg/mL; solubility at 18 h [2, 8]: 732 µg/mL (≈ 1180 µM); solubility at 18 h [2, 9]: 851 µg/mL (≈ 1370 µM); solubility at 18 h [2, 10]: 2180 µg/mL (≈ 3510 µM); solubility at 18 h [2, 11]: 2720 µg/mL (≈ 4380 µM); solubility at 18 h [2, 12]: 11100 µg/mL (≈ 17900 µM); solubility at 18 h [2, 13]: 7920 µg/mL (≈ 12700 µM); solubility at 18 h [2, 14]: 77200 µg/mL (≈ 124000 µM); solubility at 18 h [2, 15]: 71 µg/mL (≈ 114 µM); solubility at 18 h [2, 16]: 3920 µg/mL (≈ 6310 µM); solubility at 18 h [2, 17]: 57300 µg/mL (≈ 92300 µM); solubility at 18 h [2, 18]: 8260 µg/mL (≈ 13300 µM); solubility at 18 h [2, 19]: < 4 µg/mL; solubility at 18 h [2, 20]: 192 µg/mL (≈ 309 µM); solubility at 18 h [2, 21]: 5 µg/mL (≈ 8.05 µM); solubility at 18 h [2, 22]: < 4 µg/mL |
| O=C(Cc1ccccc1Cl)Nc1ccc(CCCCc2nnc(NC(=O)Cc3ccccc3F)s2)nn1 [Compound 533] | Yes (efflux ratios being significant when greater than or equal to 3 when the Papp (B→A) was greater than or equal to 1×10^−6 cm/s) | 41% | 52% | 7.6 | 4.94 ×10⁻⁶ cm/s | 37.5 ×10⁻⁶ cm/s | > 1 ×10⁻⁶ cm/s |  |
| CC(C(=O)Nc1nnc(CCCCc2ccc(NC(=O)Cc3ccccc3)nn2)s1)c1ccccc1 (stereo not shown) [Compound 616] | Yes (efflux ratios being significant when greater than or equal to 3 when the Papp (B→A) was greater than or equal to 1×10^−6 cm/s) | 65% | 76% | 6 | 8.23 ×10⁻⁶ cm/s | 49.5 ×10⁻⁶ cm/s | > 1 ×10⁻⁶ cm/s |  |
| O=C(Cc1cccc(OC(F)(F)F)c1)Nc1ccc(CCCCc2nnc(NC(=O)Cc3cccc(OC(F)(F)F)c3)s2)nn1 [Compound 660] | Yes (efflux ratios being significant when greater than or equal to 3 when the Papp (B→A) was greater than or equal to 1×10^−6 cm/s) | 56% | 68% | 3.9 | 0.61 ×10⁻⁶ cm/s | 2.37 ×10⁻⁶ cm/s | < 1 ×10⁻⁶ cm/s |  |
| O=C(Cc1cccc(OC(F)(F)F)c1)Nc1ccc(CCCCc2nnc(NC(=O)Cc3cccc(F)c3)s2)nn1 [Compound 679] | No (efflux ratios being significant when greater than or equal to 3 when the Papp (B→A) was greater than or equal to 1×10^−6 cm/s) | 34% | 42% | 2.6 | 7.59 ×10⁻⁶ cm/s | 19.6 ×10⁻⁶ cm/s | > 1 ×10⁻⁶ cm/s |  |
| O=C(Cc1cccc(OC(F)(F)F)c1)Nc1ccc(CCCCc2nnc(NC(=O)[C@H](O)c3ccccc3)s2)nn1 [Compound 705] | Yes (efflux ratios being significant when greater than or equal to 3 when the Papp (B→A) was greater than or equal to 1×10^−6 cm/s) | 60% | 67% | 6 | 8.52 ×10⁻⁶ cm/s | 51 ×10⁻⁶ cm/s | > 1 ×10⁻⁶ cm/s |  |

From patent US8604016B2, “Heterocyclic inhibitors of glutaminase” (Calithera Biosciences Inc., priority 2011, dated 2013)
